Assays:
[1] = target: T1, MDR1 (multi-drug resistance-1) (Homo sapiens, UniProt P08183); experiment: cell tolerance (viability) assay, MDR1-overexpressing vs vector HCT-8 cells, reversed by elacridar; format: cell-based
T1 construct: gene ABCB1; transient over-expression from pCMV3-MDR1 in HCT-8 cells

MBP-CpeIF4A = MBP-CpeIF4A (Cryptosporidium parvum, UniProt F0X401 1-405); experiment: RNA alone, no ATP, no Roc-A; TSA: 90 mM Na2HPO4, 10 mM NaH2PO4, 2 mM DTT, pH 7.8, 5 uM MBP-CpeIF4A, 20 uM SYPRO Orange; melt 40-70 C at 1 C/min; conditions: protein: recombinant; tags: N-terminal MBP (pMAL-c5X); label: 6-FAM on 42-nt strand (text says 5' end, printed at 3'); BHQ-1 on 24-nt strand (text says 3', printed at 5'); 5' overhang 18 nt on strand 1, 24 bp duplex

Molecule	cell tolerance (viability) assay, MDR1-overexpressing vs vector HCT-8 cells, rev [1]	Kd (MBP-CpeIF4A) [nM]
COc1ccc([C@@]23Oc4cc(OC)cc(OC)c4[C@]2(O)[C@H](O)[C@H](C(=O)N(C)C)[C@H]3c2ccccc2)cc1 [Roc-A, Rocaglamide A]	reversed this tolerance in a dose-dependent manner (Fig 1D, bars from 3a to 6b), verifying that Roc-A is an MDR1 substrate	
5'-overhanging duplex RNA (42/24 nt) (dsRNA) RNA 1: CAUUAUCGGAUAGUGGAACCUAGCUUCGACUAUCGGAUAAUC RNA 2: GAUUAUCCGAUAGUCGAAGCUAGG		1130

— paper PMC12313074, “Targeting translation initiation yields fast-killing therapeutics against the zoonotic parasite Cryptosporidium parvum” (PLOS Pathogens, 2025)
